Assay results: PubChem BioAssay (NCI)
“And” between values parts separate entries of the source, which are not always exact repeats. Equal entries are not always repeated.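 Cultured in 96-well plates, cells were exposed to test compound for 48 hours across five concentrations. Abbreviation: GI50, concentration required for 50% inhibition of growth. At the TGI there is no net growth.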

What was measured:
Assay in all cases: NCI tumour cell line growth inhibition, 48 h
DU-145 prostate = tested on: DU-145 prostate
EKVX NSCLC = tested on: EKVX NSCLC
MCF7 breast = tested on: MCF7 breast
MDA-MB-231 breast = tested on: MDA-MB-231 breast
HOP-62 NSCLC = tested on: HOP-62 NSCLC
LOX IMVI melanoma = tested on: LOX IMVI melanoma
CCRF-CEM leukemia = tested on: CCRF-CEM leukemia
RPMI-8226 leukemia = tested on: RPMI-8226 leukemia
HOP-92 NSCLC = tested on: HOP-92 NSCLC
ACHN renal = tested on: ACHN renal
SR leukemia = tested on: SR leukemia
MDA-MB-435 = tested on: MDA-MB-435
TK-10 renal = tested on: TK-10 renal
XF 498 CNS = tested on: XF 498 CNS
KM12 colon = tested on: KM12 colon
DLD-1 colon = tested on: DLD-1 colon
SN12C renal = tested on: SN12C renal
NCI-H460 lung = tested on: NCI-H460 lung
UACC-62 melanoma = tested on: UACC-62 melanoma
IGROV1 ovarian = tested on: IGROV1 ovarian
SF-295 CNS = tested on: SF-295 CNS
UO-31 renal = tested on: UO-31 renal
KM20L2 colon = tested on: KM20L2 colon
OVCAR-4 ovarian = tested on: OVCAR-4 ovarian
NCI/ADR-RES ovarian = tested on: NCI/ADR-RES ovarian
HT29 colon = tested on: HT29 colon
OVCAR-5 ovarian = tested on: OVCAR-5 ovarian
MDA-N = tested on: MDA-N
P388 leukemia = tested on: P388 leukemia
U251 CNS = tested on: U251 CNS
A549 NSCLC = tested on: A549 NSCLC
BT-549 breast = tested on: BT-549 breast
SN12K1 renal = tested on: SN12K1 renal
HCT-15 colon = tested on: HCT-15 colon
SW-620 colon = tested on: SW-620 colon
P388/ADR leukemia = tested on: P388/ADR leukemia
786-0 renal = tested on: 786-0 renal
DMS 273 small cell lung = tested on: DMS 273 small cell lung
CAKI-1 renal = tested on: CAKI-1 renal
HCC-2998 colon = tested on: HCC-2998 colon
UACC-257 melanoma = tested on: UACC-257 melanoma
COLO 205 colon = tested on: COLO 205 colon
MOLT-4 leukemia = tested on: MOLT-4 leukemia
SNB-19 CNS = tested on: SNB-19 CNS
SK-OV-3 ovarian = tested on: SK-OV-3 ovarian
SK-MEL-5 melanoma = tested on: SK-MEL-5 melanoma
SF-268 CNS = tested on: SF-268 CNS
HOP-18 NSCLC = tested on: HOP-18 NSCLC
M19-MEL melanoma = tested on: M19-MEL melanoma
RXF 393 renal = tested on: RXF 393 renal
SK-MEL-28 melanoma = tested on: SK-MEL-28 melanoma
SNB-75 CNS = tested on: SNB-75 CNS
T-47D breast = tested on: T-47D breast
DMS 114 small cell lung = tested on: DMS 114 small cell lung

## C1CN1c1nc(N2CC2)nc(N2CC2)n1
DU-145 prostate
  GI50: 0.825 µM
EKVX NSCLC
  GI50: 22.2 µM
  TGI: 55.5 µM and 47.4 µM
MCF7 breast
  GI50: 1.39 µM
  TGI: 27.1 µM and 28.9 µM
MDA-MB-231 breast
  TGI: 56.5 µM and 36.4 µM
HOP-62 NSCLC
  GI50: 5.92 µM
  TGI: 15.7 µM and 30.1 µM
LOX IMVI melanoma
  TGI: 24.7 µM and 14.3 µM
CCRF-CEM leukemia
  GI50: 0.195 µM
RPMI-8226 leukemia
  GI50: 15.9 µM
  TGI: 72.6 µM and 29.7 µM
HOP-92 NSCLC
  GI50: 8.04 µM
  TGI: 35.9 µM and 17.7 µM
ACHN renal
  TGI: 20.5 µM
SR leukemia
  TGI: 19.6 µM
MDA-MB-435
  GI50: 16.5 µM
  TGI: 35.8 µM and 29.9 µM
TK-10 renal
  GI50: 4.36 µM
  TGI: 79.8 µM and 16.7 µM
XF 498 CNS
  TGI: 17.2 µM
KM12 colon
  GI50: 13 µM
  TGI: 42.3 µM and 35.9 µM
DLD-1 colon
  TGI: 78.8 µM
SN12C renal
  GI50: 4.32 µM
  TGI: 45.3 µM and 41.2 µM
NCI-H460 lung
  TGI: 17.6 µM
UACC-62 melanoma
  GI50: 3.75 µM
  TGI: 14.8 µM and 17 µM
IGROV1 ovarian
  GI50: 11.1 µM
  TGI: 33.4 µM and 21.8 µM
SF-295 CNS
  GI50: 1.31 µM
  TGI: 19.7 µM and 24.9 µM
UO-31 renal
  GI50: 1.28 µM
  TGI: 23.4 µM and 3.68 µM
KM20L2 colon
  TGI: 47.7 µM
OVCAR-4 ovarian
  GI50: 13.8 µM
  TGI: 36.5 µM and 20.3 µM
NCI/ADR-RES ovarian
  GI50: 3.48 µM
  TGI: 38.6 µM and 12.8 µM
HT29 colon
  TGI: 64.8 µM and 35.4 µM
OVCAR-5 ovarian
  GI50: 13.7 µM
  TGI: 42 µM and 31.4 µM
MDA-N
  GI50: 15 µM
  TGI: 42 µM and 33.3 µM
P388 leukemia
  TGI: 17.3 µM
U251 CNS
  GI50: 6.6 µM
  TGI: 27.5 µM and > 50.1 µM
A549 NSCLC
  GI50: 4.99 µM
  TGI: 31 µM and 28.3 µM
BT-549 breast
  GI50: 8.42 µM
  TGI: 45.1 µM and 19.1 µM
SN12K1 renal
  TGI: 26 µM
HCT-15 colon
  GI50: 10.1 µM
  TGI: 50.2 µM and 24.6 µM
SW-620 colon
  GI50: 7.84 µM
  TGI: 56.3 µM and > 54.9 µM
P388/ADR leukemia
  TGI: 16.7 µM
786-0 renal
  GI50: 1.83 µM
  TGI: 17 µM and 16 µM
DMS 273 small cell lung
  TGI: 20.5 µM
CAKI-1 renal
  GI50: 1.87 µM
  TGI: 24.8 µM and 27.5 µM
HCC-2998 colon
  GI50: 10.4 µM
  TGI: 23.8 µM and 18.3 µM
UACC-257 melanoma
  GI50: 13.3 µM
  TGI: 31.9 µM and 23 µM
COLO 205 colon
  TGI: 32 µM and 41 µM
MOLT-4 leukemia
  TGI: 15.3 µM
SNB-19 CNS
  GI50: 4.55 µM
  TGI: 58.2 µM and > 51.3 µM
SK-OV-3 ovarian
  GI50: 13.9 µM
  TGI: 41.1 µM and 36.6 µM
SK-MEL-5 melanoma
  GI50: 6.93 µM
  TGI: 19.6 µM and 14 µM
SF-268 CNS
  GI50: 1.45 µM
  TGI: 37.5 µM and 14.8 µM
HOP-18 NSCLC
  TGI: 68.9 µM
M19-MEL melanoma
  TGI: 33 µM
RXF 393 renal
  GI50: 3.32 µM
  TGI: 21.6 µM and 13.5 µM
SK-MEL-28 melanoma
  TGI: 40 µM
SNB-75 CNS
  GI50: 8.99 µM
  TGI: 25.7 µM and 31.5 µM
T-47D breast
  GI50: 8.23 µM and 1.24 µM
  TGI: 76.6 µM and 19.6 µM
DMS 114 small cell lung
  TGI: 23.2 µM

## C[C@@]1(CO)[C@H](O)CC[C@@]2(C)[C@H]1CC[C@H]1C[C@@H]3C[C@@]12CC[C@@]3(O)COC(=O)CN
DU-145 prostate
  GI50: 2.02 µM
  TGI: > 59.8 µM and 75.5 µM
EKVX NSCLC
  GI50: 96.8 µM and 79.3 µM
  TGI: 64.5 µM and > 500 µM and 171 µM
MCF7 breast
  GI50: 3.17 µM and 21.2 µM and 3.87 µM
MDA-MB-231 breast
  GI50: 45.4 µM
  TGI: > 89.6 µM and 172 µM
HOP-62 NSCLC
  GI50: 4.69 µM and 23.3 µM
  TGI: > 78.7 µM and > 500 µM and 147 µM
LOX IMVI melanoma
  GI50: 3.62 µM and 6.65 µM
CCRF-CEM leukemia
  GI50: 6.56 µM and 0.777 µM
RPMI-8226 leukemia
  GI50: 16.1 µM and 3.35 µM
  TGI: 78.2 µM and > 500 µM and 126 µM
HOP-92 NSCLC
  GI50: 325 µM
  TGI: 83.4 µM and > 500 µM and 137 µM
ACHN renal
  GI50: 0.186 µM
  TGI: 40.7 µM and 16.5 µM
SR leukemia
  GI50: 1.66 µM
  TGI: 46.5 µM and 47.4 µM
MDA-MB-435
  GI50: 34.8 µM
  TGI: > 77.6 µM and 109 µM
TK-10 renal
  GI50: 116 µM
  TGI: > 81.1 µM and 193 µM
XF 498 CNS
  GI50: > 70.5 µM and 54.2 µM and 16.8 µM
  TGI: 347 µM and 176 µM
KM12 colon
  GI50: > 500 µM and 101 µM
  TGI: 73.7 µM and > 500 µM and 238 µM
DLD-1 colon
  GI50: > 500 µM and 104 µM
  TGI: > 500 µM
SN12C renal
  TGI: 65.7 µM and > 500 µM and 183 µM
NCI-H460 lung
  GI50: 0.176 µM and 1.37 µM and 0.317 µM
UACC-62 melanoma
  TGI: > 500 µM and 131 µM
IGROV1 ovarian
  TGI: > 500 µM and 181 µM
SF-295 CNS
  GI50: 770 nM (2×) and 3.44 µM
  TGI: 24.4 µM and 142 µM
UO-31 renal
  GI50: 9.27 µM
  TGI: > 80.6 µM and 201 µM
KM20L2 colon
  GI50: 61.2 µM and 28.7 µM and 129 µM
  TGI: > 500 µM
OVCAR-4 ovarian
  GI50: > 500 µM and 111 µM
  TGI: > 87.1 µM and > 500 µM and 182 µM
NCI/ADR-RES ovarian
  TGI: 79.9 µM and > 500 µM and 163 µM
HT29 colon
  GI50: 13.2 µM
  TGI: 50.9 µM and 183 µM
OVCAR-5 ovarian
  GI50: 31.2 µM and 137 µM and 33.9 µM
  TGI: > 93.2 µM and > 500 µM and 188 µM
MDA-N
  TGI: > 86.9 µM and 180 µM
P388 leukemia
  TGI: 209 µM
U251 CNS
  GI50: 4.35 µM and 7.51 µM
  TGI: 66 µM and 50 µM and 178 µM
A549 NSCLC
  GI50: 1.81 µM and 15.7 µM and 3.1 µM
  TGI: 76.1 µM and > 500 µM and 182 µM
BT-549 breast
  GI50: 62.7 µM
  TGI: > 241 µM
SN12K1 renal
  GI50: 7.45 µM and 1.49 µM
  TGI: > 500 µM
HCT-15 colon
  TGI: > 500 µM and 231 µM
SW-620 colon
  TGI: 59.4 µM and > 500 µM and 220 µM
P388/ADR leukemia
  TGI: 126 µM
786-0 renal
  GI50: 1.12 µM
  TGI: 60.8 µM and 108 µM
DMS 273 small cell lung
  GI50: 0.25 µM
  TGI: 144 µM
CAKI-1 renal
  GI50: 2.36 µM
  TGI: 78.7 µM
HCC-2998 colon
  GI50: > 500 µM and 72.6 µM
UACC-257 melanoma
  GI50: 133 µM and 99.4 µM
  TGI: > 72.2 µM and > 500 µM and 239 µM
COLO 205 colon
  GI50: 82.4 µM
  TGI: 39.7 µM and 193 µM
MOLT-4 leukemia
  GI50: 2.55 µM
  TGI: 53.7 µM and 162 µM
SNB-19 CNS
  TGI: > 500 µM and 254 µM
SK-OV-3 ovarian
  TGI: 99.8 µM and > 500 µM and 186 µM
SK-MEL-5 melanoma
  GI50: 41.9 µM and 6.06 µM
  TGI: > 500 µM and 95.7 µM
SF-268 CNS
  GI50: 65.6 µM
  TGI: > 500 µM and 242 µM
HOP-18 NSCLC
  GI50: > 500 µM and 87.4 µM
  TGI: > 500 µM
M19-MEL melanoma
  TGI: > 500 µM and 161 µM
RXF 393 renal
  TGI: 53.6 µM and > 500 µM and 163 µM
SK-MEL-28 melanoma
  GI50: 83.9 µM and 150 µM
  TGI: > 500 µM and 252 µM
SNB-75 CNS
  TGI: 58.3 µM and > 500 µM and 258 µM
T-47D breast
  GI50: 41.9 µM
  TGI: > 79.1 µM and 190 µM
DMS 114 small cell lung
  TGI: > 500 µM and 170 µM
